Experimental data taken from patent publication EP0093484A2, “Antibacterial monic acid derivatives” (BEECHAM GROUP PLC, priority 1982, dated 1983).
Converted amounts (≈) assume the structure as drawn.

How the values were obtained:
[1] = tested on: E. coli E1; assay: Veterinary bacteria, MIC by two fold serial dilution in agar; conditions: Escherichia coli, E1, 18 h
Description: (§1) The activity of the compounds of the Examples against various organisms important in veterinary infections was determined using two fold serial dilutions in Diagnostic Sensitivity Test Agar inoculated with 10^4 organisms.

[2] = tested on: E. coli NCTC 10418; assay: as above; conditions: Escherichia coli, NCTC10418, 18 h
Description: as §1

[3] = tested on: M. suipneumoniae Str. 11; assay: Anti-mycoplasmal activity, MIC in Friis broth agarose; format: cell-based; conditions: Mesomycoplasma hyopneumoniae, 144 h, Friis broth solidified with 0.9% agarose, 6 days incubation at 37°C, read-out: MIC
[4] = tested on: M. dispar NCTC 10125; assay: as above; format: cell-based; conditions: 144 h, Friis broth solidified with 0.9% agarose, 6 days incubation at 37°C, read-out: MIC
[5] = tested on: S. typhimurium S18; assay: Veterinary bacteria, MIC by two fold serial dilution in agar; conditions: Salmonella enterica, TYPHIMURIUM, 18 h
Description: as §1

[6] = tested on: Bacillus subtilis 6633; assay: Human bacteria, MIC by serial dilution in nutrient agar; format: cell-based; conditions: nutrient agar with 5% chocolated horse blood, 18 hours at 37°C, read-out: MIC
[7] = tested on: Sarcina lutea 8340; assay: as above; format: cell-based; conditions: Micrococcus luteus, nutrient agar with 5% chocolated horse blood, 18 hours at 37°C, read-out: MIC
[8] = tested on: Staph. aureus W2827; assay: as above; format: cell-based; conditions: Staphylococcus aureus, nutrient agar with 5% chocolated horse blood, 18 hours at 37°C, read-out: MIC
[9] = tested on: S. dublin S7; assay: Veterinary bacteria, MIC by two fold serial dilution in agar; conditions: Salmonella enterica, S7, 18 h
Description: as §1

[10] = tested on: M. suipneumoniae J2206/183b; assay: Anti-mycoplasmal activity, MIC in Friis broth agarose; format: cell-based; conditions: Mesomycoplasma hyopneumoniae, 144 h, Friis broth solidified with 0.9% agarose, 6 days incubation at 37°C, read-out: MIC
[11] = tested on: Past. haemolytica PA5; assay: Veterinary bacteria, MIC by two fold serial dilution in agar; conditions: Mannheimia haemolytica, PA5, 18 h
Description: as §1

[12] = tested on: Strep. dysgalactiae SPD1; assay: as above; conditions: Streptococcus dysgalactiae, SPD1, 18 h
Description: as §1

[13] = tested on: Strep. pneumoniae CN33; assay: Human bacteria, MIC by serial dilution in nutrient agar; format: cell-based; conditions: Streptococcus pneumoniae, nutrient agar with 5% chocolated horse blood, 18 hours at 37°C, read-out: MIC
[14] = tested on: M. gallisepticum S6; assay: Anti-mycoplasmal activity, MIC in Friis broth agarose; format: cell-based; conditions: Mycoplasmoides gallisepticum, 144 h, Friis broth solidified with 0.9% agarose, 6 days incubation at 37°C, read-out: MIC
[15] = tested on: Staph. aureus B4 (pen. resistant); assay: Veterinary bacteria, MIC by two fold serial dilution in agar; conditions: Staphylococcus aureus, 18 h
Description: as §1

[16] = tested on: Haemophilus influenzae Q1; assay: Human bacteria, MIC by serial dilution in nutrient agar; format: cell-based; conditions: nutrient agar with 5% chocolated horse blood, 18 hours at 37°C, read-out: MIC
[17] = tested on: Bord. bronchiseptica BO9; assay: Veterinary bacteria, MIC by two fold serial dilution in agar; conditions: Bordetella bronchiseptica, BO9, 18 h
Description: as §1

[18] = tested on: Corynebacterium pyogenes CY1; assay: as above; conditions: CY1, 18 h
Description: as §1

[19] = tested on: M. bovigenitalium ATCC 14173; assay: Anti-mycoplasmal activity, MIC in Friis broth agarose; format: cell-based; conditions: 144 h, Friis broth solidified with 0.9% agarose, 6 days incubation at 37°C, read-out: MIC
[20] = tested on: Neisseria catarrhalis 1502; assay: Human bacteria, MIC by serial dilution in nutrient agar; format: cell-based; conditions: nutrient agar with 5% chocolated horse blood, 18 hours at 37°C, read-out: MIC
[21] = tested on: P. mirabilis 889; assay: as above; format: cell-based; conditions: Proteus mirabilis, nutrient agar with 5% chocolated horse blood, 18 hours at 37°C, read-out: MIC
[22] = tested on: E. coli ESS; assay: as above; format: cell-based; conditions: Escherichia coli, nutrient agar with 5% chocolated horse blood, 18 hours at 37°C, read-out: MIC
[23] = tested on: M. suipneumoniae JF 435; assay: Anti-mycoplasmal activity, MIC in Friis broth agarose; format: cell-based; conditions: Mesomycoplasma hyopneumoniae, JF435, 144 h, Friis broth solidified with 0.9% agarose, 6 days incubation at 37°C, read-out: MIC
[24] = tested on: Haemophilus influenzae Wy21; assay: Human bacteria, MIC by serial dilution in nutrient agar; format: cell-based; conditions: nutrient agar with 5% chocolated horse blood, 18 hours at 37°C, read-out: MIC
[25] = tested on: M. hyorhinis ATCC 23234; assay: Anti-mycoplasmal activity, MIC in Friis broth agarose; format: cell-based; conditions: Mesomycoplasma hyorhinis, ATCC23234, 144 h, Friis broth solidified with 0.9% agarose, 6 days incubation at 37°C, read-out: MIC
[26] = tested on: M. suipneumoniae ATCC 25095; assay: as above; format: cell-based; conditions: Mesomycoplasma hyopneumoniae, ATCC25095, 144 h, Friis broth solidified with 0.9% agarose, 6 days incubation at 37°C, read-out: MIC
[27] = tested on: Pasteurella multocida 1633; assay: Human bacteria, MIC by serial dilution in nutrient agar; format: cell-based; conditions: nutrient agar with 5% chocolated horse blood, 18 hours at 37°C, read-out: MIC
[28] = tested on: M. suipneumoniae MS16; assay: Anti-mycoplasmal activity, MIC in Friis broth agarose; format: cell-based; conditions: Mesomycoplasma hyopneumoniae, 144 h, Friis broth solidified with 0.9% agarose, 6 days incubation at 37°C, read-out: MIC
[29] = tested on: Strep. pyogenes R80/421-A; assay: Human bacteria, MIC by serial dilution in nutrient agar; format: cell-based; conditions: Streptococcus pyogenes, nutrient agar with 5% chocolated horse blood, 18 hours at 37°C, read-out: MIC
[30] = tested on: Strep. faecalis I; assay: as above; format: cell-based; conditions: Enterococcus faecalis, nutrient agar with 5% chocolated horse blood, 18 hours at 37°C, read-out: MIC
[31] = tested on: Past. multocida PA1; assay: Veterinary bacteria, MIC by two fold serial dilution in agar; conditions: Pasteurella multocida, PA1, 18 h
Description: as §1

[32] = tested on: M. suipneumoniae NB12; assay: Anti-mycoplasmal activity, MIC in Friis broth agarose; format: cell-based; conditions: Mesomycoplasma hyopneumoniae, 144 h, Friis broth solidified with 0.9% agarose, 6 days incubation at 37°C, read-out: MIC
[33] = tested on: Staph. aureus Russell; assay: Human bacteria, MIC by serial dilution in nutrient agar; format: cell-based; conditions: Staphylococcus aureus, nutrient agar with 5% chocolated horse blood, 18 hours at 37°C, read-out: MIC
[34] = tested on: Strep. spp. 64/848-C; assay: as above; format: cell-based; conditions: nutrient agar with 5% chocolated horse blood, 18 hours at 37°C, read-out: MIC
[35] = tested on: Erysipelothrix rhusiopathiae NCTC 8163; assay: Veterinary bacteria, MIC by two fold serial dilution in agar; conditions: Erysipelothrix rhusiopathiae, NCTC8163, 18 h
Description: as §1

[36] = tested on: E. coli NCTC 10418; assay: Human bacteria, MIC by serial dilution in nutrient agar; format: cell-based; conditions: Escherichia coli, NCTC10418; E. coli NCTC 10418 (human panel); nutrient agar with 5% chocolated horse blood; 18 hours at 37°C; read-out: MIC
[37] = tested on: Corynebacterium xerosis 9755; assay: as above; format: cell-based; conditions: nutrient agar with 5% chocolated horse blood, 18 hours at 37°C, read-out: MIC
[38] = tested on: M. hyorhinis ATCC 25021; assay: Anti-mycoplasmal activity, MIC in Friis broth agarose; format: cell-based; conditions: Mesomycoplasma hyorhinis, ATCC25021, 144 h, Friis broth solidified with 0.9% agarose, 6 days incubation at 37°C, read-out: MIC
[39] = tested on: K. aerogenes A; assay: Human bacteria, MIC by serial dilution in nutrient agar; format: cell-based; conditions: Klebsiella aerogenes, nutrient agar with 5% chocolated horse blood, 18 hours at 37°C, read-out: MIC
[40] = tested on: Past. multocida PA2; assay: Veterinary bacteria, MIC by two fold serial dilution in agar; conditions: Pasteurella multocida, PA2, 18 h
Description: as §1

[41] = tested on: M. bovis NCTC 10131; assay: microbe, parasite or virus in culture; format: cell-based; conditions: NCTC10131, 144 h

CC(=CC(=O)OCc1ccc([S+](C)[O-])cc1)CC1OCC(CC2OC2C(C)C(C)O)C(O)C1O (stereo not shown) [Example 2, p- Methylsulphinylbenzyl monate A]
MIC [1]: > 80 µg/mL | MIC [2]: > 80 µg/mL | MIC [3]: 0.25 µg/mL (≈ 0.503 µM) | MIC [4]: 0.1 µg/mL (≈ 0.201 µM) | MIC [5]: > 80 µg/mL | MIC [6]: 1 µg/mL (≈ 2.01 µM) | MIC [7]: > 100 µg/mL | MIC [8]: 2.5 µg/mL (≈ 5.03 µM) | MIC [9]: > 80 µg/mL | MIC [10]: 0.25 µg/mL (≈ 0.503 µM) | MIC [11]: 5 µg/mL (≈ 10.1 µM) | MIC [12]: 0.312 µg/mL (≈ 0.628 µM) | MIC [13]: 1 µg/mL (≈ 2.01 µM) | MIC [14]: 1 µg/mL (≈ 2.01 µM) | MIC [15]: 2.5 µg/mL (≈ 5.03 µM) | MIC [16]: 0.05 µg/mL (≈ 0.101 µM) | MIC [17]: 5 µg/mL (≈ 10.1 µM) | MIC [18]: > 80 µg/mL | MIC [19]: 0.025 µg/mL (≈ 0.0503 µM) | MIC [20]: 0.5 µg/mL (≈ 1.01 µM) | MIC [21]: 50 µg/mL (≈ 101 µM) | MIC [22]: 0.5 µg/mL (≈ 1.01 µM) | MIC [23]: 0.25 µg/mL (≈ 0.503 µM) | MIC [24]: 0.1 µg/mL (≈ 0.201 µM) | MIC [25]: 0.25 µg/mL (≈ 0.503 µM) | MIC [26]: 0.25 µg/mL (≈ 0.503 µM) | MIC [27]: 0.5 µg/mL (≈ 1.01 µM) | MIC [28]: 0.1 µg/mL (≈ 0.201 µM) | MIC [29]: 0.5 µg/mL (≈ 1.01 µM) | MIC [30]: 50 µg/mL (≈ 101 µM) | MIC [31]: 0.625 µg/mL (≈ 1.26 µM) | MIC [32]: 0.25 µg/mL (≈ 0.503 µM) | MIC [33]: 2.5 µg/mL (≈ 5.03 µM) | MIC [34]: 1 µg/mL (≈ 2.01 µM) | MIC [35]: 20 µg/mL (≈ 40.3 µM) | MIC [36]: > 100 µg/mL | MIC [37]: > 100 µg/mL | MIC [38]: 0.1 µg/mL (≈ 0.201 µM) | MIC [39]: > 100 µg/mL | MIC [40]: 0.625 µg/mL (≈ 1.26 µM) | MIC [41]: ≤ 0.01 µg/mL

CC(=CC(=O)OCc1ccc(S(C)(=O)=O)cc1)CC1OCC(CC2OC2C(C)C(C)O)C(O)C1O (stereo not shown) [Example 3, p-Methylsulphonylbenzyl monate A]
MIC [1]: > 80 µg/mL | MIC [2]: 80 µg/mL (≈ 156 µM) | MIC [3]: 0.1 µg/mL (≈ 0.195 µM) | MIC [4]: 0.05 µg/mL (≈ 0.0975 µM) | MIC [5]: > 80 µg/mL | MIC [6]: 0.5 µg/mL (≈ 0.975 µM) | MIC [7]: > 100 µg/mL | MIC [8]: 2.5 µg/mL (≈ 4.88 µM) | MIC [9]: > 80 µg/mL | MIC [10]: 0.25 µg/mL (≈ 0.488 µM) | MIC [11]: 5 µg/mL (≈ 9.75 µM) | MIC [12]: 0.156 µg/mL (≈ 0.304 µM) | MIC [13]: 0.5 µg/mL (≈ 0.975 µM) | MIC [14]: 0.5 µg/mL (≈ 0.975 µM) | MIC [15]: 1.25 µg/mL (≈ 2.44 µM) | MIC [16]: 0.05 µg/mL (≈ 0.0975 µM) | MIC [17]: 2.5 µg/mL (≈ 4.88 µM) | MIC [18]: > 80 µg/mL | MIC [19]: ≤ 0.01 µg/mL | MIC [20]: 0.25 µg/mL (≈ 0.488 µM) | MIC [21]: 50 µg/mL (≈ 97.5 µM) | MIC [22]: 0.5 µg/mL (≈ 0.975 µM) | MIC [23]: 0.25 µg/mL (≈ 0.488 µM) | MIC [24]: 0.1 µg/mL (≈ 0.195 µM) | MIC [25]: 0.1 µg/mL (≈ 0.195 µM) | MIC [26]: 0.1 µg/mL (≈ 0.195 µM) | MIC [27]: 0.25 µg/mL (≈ 0.488 µM) | MIC [28]: 0.1 µg/mL (≈ 0.195 µM) | MIC [29]: 0.25 µg/mL (≈ 0.488 µM) | MIC [30]: 50 µg/mL (≈ 97.5 µM) | MIC [31]: 0.025 µg/mL (≈ 0.0488 µM) | MIC [32]: 0.1 µg/mL (≈ 0.195 µM) | MIC [33]: 2.5 µg/mL (≈ 4.88 µM) | MIC [34]: 0.5 µg/mL (≈ 0.975 µM) | MIC [35]: 80 µg/mL (≈ 156 µM) | MIC [36]: 100 µg/mL (≈ 195 µM) | MIC [37]: > 100 µg/mL | MIC [38]: 0.05 µg/mL (≈ 0.0975 µM) | MIC [39]: > 100 µg/mL | MIC [40]: 0.156 µg/mL (≈ 0.304 µM) | MIC [41]: < 0.01 µg/mL
